The results in this text go back to US20080096981A1, “Antibodies against inducible TH2 cell factors” (Genaera Corporation, priority 1999, published 2008).

Entries after “also recorded” stand apart in the source; their conditions may differ.

The test system of this experiment is TH2AF1. Put plainly: TH2AF1 expression in lung of C57BL/6 mice after intratracheal instillation of recombinant cytokines. The experiment is classed as in vivo, mouse. Particulars: recombinant cytokine instilled into trachea of C57BL/6 mice, FIG. 5. As for the experimental part:
To confirm that the expression of IL-9 was critically related to the expression of TH2AF1 and to control for genetic background specifically, recombinant murine IL-9 was introduced into the lung of murine strain C57BL/6. Recombinant IL-9 was instilled into the trachea of anesthetized mice by addition of 50 μl of a 0.1 mg/ml IL-9 solution or vehicle alone (0.1% bovine serum albumin) daily for ten days. After ten days, the mice were euthanized and lungs extracted for either RNA expression analysis using Trizol as described by the manufacturer (Gibco-BRL) or Western blot analysis to determine levels of IL-9 instilled.
Expression of TH2AF1 RNA was measured as described in Example 3. […] Ribosomal RNAs (rRNA, lower panel) were stained using ethidium bromide (lower panel) to control for RNA loading.

Turning to “interferon gamma: recombinant TH1 associated cytokine”, the “induction of TH2AF1 expression in the lung (steady state mRNA)” value was “did not induce and not”.

B1: IL-9: recombinant murine IL-9, TH2 associated cytokine (protein, UniProt P15247 19-144, looked up)
Interleukin-9: QRCSTTWGIRDTNYLIENLKDDPPSKCSCSGNVTSCLCLSVPTDDCTTPCYREGLLQLTNATQKSRLLPVFHRVKRIVEVLKNITCPSFSCEKPCNQTMAGNTLSFLKSLLGTFQKTEMQRQKSRP
On to B1, for which the “induction of TH2AF1 expression in the lung (steady state mRNA)” value was “expressed; also recorded: induced the expression”.
